According to ChEMBL document CHEMBL1150048, “Echinofuran, a New Furanosesquiterpene from the Gorgonian Echinogorgia praelonga” (J Nat Prod, 1992):
The source made the active and inactive calls. The calls are words filed in the database; no cut-off is given here.

Tests used:
[1] = tested on: Aspergillus sp.; assay: Antimicrobial activity against Aspergillus sp. at 100 ug/8 mm disk; type: functional, organism-based
[2] = tested on: Staphylococcus aureus; assay: Antimicrobial activity against Staphylococcus aureus at 100 ug/8 mm disk; type: functional, organism-based
[3] = tested on: Escherichia coli; assay: Antimicrobial activity against Escherichia coli at 100 ug/8 mm disk; type: functional, organism-based
[4] = tested on: Bacillus subtilis; assay: Antimicrobial activity against Bacillus subtilis at 100 ug/8 mm disk; type: functional, organism-based
[5] = tested on: Cladosporium; assay: Antimicrobial activity against Cladosporium at 100 ug/8 mm disk; type: functional, organism-based
[6] = tested on: Poecilia reticulata; assay: Ichthyotoxicity against Poecilia reticulata up to 10 ppm; type: organism-based; conditions: in vivo
[7] = Inhibition of cell division in sea urchin fertilized egg at 1 ug/ml; conditions: echinoidea, fertilized sea urchin eggs

Structure (SMILES): C=C1CCC2=C(C)Cc3occ(C)c3C[C@@H]12 [ECHINOFURAN]
- Activity [1]: inactive
- Activity [2]: inactive
- Activity [3]: inactive
- Activity [4]: inactive
- Activity [5]: inactive
- Activity [6]: Non-toxic
- inhibition at 1 ug/ml [7]: 90%
